For seven compounds, TGI results are on record in PubChem BioAssay (NCI).

Some test systems named below: 786-0 renal; BT-549 breast; EKVX NSCLC; HCT-15 colon; MCF7 breast; NCI-H226 lung; NCI-H460 lung; NCI-H522 lung; NCI/ADR-RES ovarian; RXF 393 renal; SF-539 CNS; SK-OV-3 ovarian; SNB-19 CNS; UACC-257 melanoma; UACC-62 melanoma; HL-60(TB) leukemia; M14 melanoma; SNB-75 CNS.
What all share (test): NCI tumour cell line growth inhibition, 48 h

Each structure is given as a SMILES string.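 Exposure lasted 48 hours, with cells grown in 96-well plates and compounds tested at five concentrations. At the TGI there is no net growth.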

Consider `O=c1[nH]nc(Cc2ccccc2)n1/N=C/c1ccccc1Cl`, for which the TGI in the test on 786-0 renal, in the test with BT-549 breast, with EKVX NSCLC, in the test on HCT-15 colon, with MCF7 breast and with NCI-H226 lung was above 100 µM each time. Moreover, the TGI was above 100 µM in the test on NCI-H460 lung; above 100 µM in the test on NCI-H522 lung; above 100 µM in the test with NCI/ADR-RES ovarian; 48.5 µM with RXF 393 renal; above 100 µM with SF-539 CNS; above 100 µM with SK-OV-3 ovarian. The TGI with SNB-19 CNS, with UACC-257 melanoma and in the test on UACC-62 melanoma was above 100 µM in each case.

For the compound `CCOC(=O)/C(C#N)=C1\c2c([nH]c(=S)[nH]c2=O)Oc2ccc3ccccc3c21`, the TGI is above 100 µM in the test with 786-0 renal; above 100 µM in the test on BT-549 breast; above 100 µM with EKVX NSCLC; above 100 µM in the test on HCT-15 colon; 4.56 µM in the test with HL-60(TB) leukemia; above 100 µM in the test on M14 melanoma. In addition, the TGI was above 100 µM in the test with MCF7 breast; above 100 µM with NCI-H226 lung; above 100 µM in the test with NCI-H460 lung; 54.5 µM with NCI-H522 lung; above 100 µM in the test on NCI/ADR-RES ovarian; above 100 µM in the test on RXF 393 renal. Moreover, the TGI in the test with SK-OV-3 ovarian was above 100 µM; with SNB-19 CNS it was 58.5 µM; in the test with SNB-75 CNS it was 52 µM; in the test on UACC-257 melanoma, above 100 µM; with UACC-62 melanoma it was above 100 µM.

As for `O=C(CCc1ccc(O)cc1)NCCc1cccc(OCc2ccccc2)c1`, the TGI with 786-0 renal is above 100 µM; in the test on BT-549 breast, 45.6 µM; in the test on EKVX NSCLC it was above 100 µM; in the test with HCT-15 colon, above 100 µM; with HL-60(TB) leukemia, 50 µM; in the test with M14 melanoma it was 36.2 µM. Besides, the TGI was 86.6 µM in the test on MCF7 breast; 97.8 µM in the test with NCI-H226 lung; 66.6 µM in the test on NCI-H460 lung; 99.3 µM with NCI-H522 lung; above 100 µM with NCI/ADR-RES ovarian; above 100 µM in the test with RXF 393 renal. The TGI is 31 µM in the test with SF-539 CNS; above 100 µM in the test with SK-OV-3 ovarian; above 100 µM in the test on SNB-19 CNS; 39.3 µM in the test with UACC-257 melanoma; 34 µM with UACC-62 melanoma.

Regarding `CCCCCCCCC/C=C1\CC(CO)(COC(=O)C2CCCCC2)OC1=O` (centres undefined), the TGI is 32.1 µM in the test on 786-0 renal; 36.2 µM with BT-549 breast; 39.1 µM in the test with EKVX NSCLC; 41.7 µM with HCT-15 colon; 55.9 µM in the test with M14 melanoma; 43.9 µM in the test with MCF7 breast. The TGI in the test on NCI-H226 lung turned out to be 74.4 µM; in the test on NCI-H460 lung, 57.1 µM; in the test on NCI-H522 lung, 34.6 µM; with NCI/ADR-RES ovarian it was 38.1 µM; in the test with RXF 393 renal, 38.7 µM; with SK-OV-3 ovarian, 70.8 µM. Also, the TGI came to 40.9 µM in the test with SNB-19 CNS, 32.9 µM with SNB-75 CNS, 87.4 µM in the test on UACC-257 melanoma and 46.9 µM in the test on UACC-62 melanoma.

In the case of `COc1ccc(/C=C2\CCCCCC2=O)cc1`, the TGI with 786-0 renal, in the test with BT-549 breast, with EKVX NSCLC, in the test on HCT-15 colon, with M14 melanoma and in the test on MCF7 breast was above 100 µM in each case. The TGI with NCI-H226 lung, in the test with NCI-H460 lung, in the test with NCI-H522 lung, in the test with NCI/ADR-RES ovarian, in the test with RXF 393 renal and in the test with SF-539 CNS was above 100 µM in each case. The TGI in the test on SK-OV-3 ovarian, in the test with SNB-19 CNS, with UACC-257 melanoma and in the test with UACC-62 melanoma was above 100 µM in each case.

As to `Cc1nn(-c2ccccc2)c2[nH]c(=S)cnc12`, the TGI in the test with 786-0 renal, in the test with BT-549 breast, in the test on EKVX NSCLC, with HL-60(TB) leukemia, in the test on M14 melanoma and with MCF7 breast was above 100 µM in each case. Further, the TGI with NCI-H226 lung, with NCI-H460 lung, with NCI-H522 lung, with NCI/ADR-RES ovarian, in the test with RXF 393 renal and in the test with SF-539 CNS was above 100 µM throughout. The TGI with SK-OV-3 ovarian, in the test on SNB-19 CNS, with UACC-257 melanoma and with UACC-62 melanoma was above 100 µM in each case.

Take `N#CC(Nc1ccccc1)c1ccc(C(C#N)Nc2ccccc2)cc1` (centres undefined): the TGI is above 100 µM in the test with 786-0 renal; above 100 µM in the test on BT-549 breast; above 100 µM in the test with EKVX NSCLC; above 100 µM in the test with HCT-15 colon; 34.3 µM with HL-60(TB) leukemia; above 100 µM with M14 melanoma. The TGI with MCF7 breast, with NCI-H226 lung, in the test with NCI-H460 lung, with NCI-H522 lung, in the test with NCI/ADR-RES ovarian and in the test on RXF 393 renal was above 100 µM in each case. The TGI was 69 µM with SF-539 CNS; above 100 µM with SK-OV-3 ovarian; above 100 µM in the test with SNB-19 CNS; above 100 µM with UACC-257 melanoma; above 100 µM with UACC-62 melanoma.
